Earlier results on 1 substance are cited in patent US7829066B2, “Assay for anti-metastatic agents” (Memorial Sloan-Kettering Cancer Center, priority 2006, dated 2010).

The subject of the data set is metastatic tumors. The following applies: stated as known.

As for “Avastin: an anti-VEGF inhibitor that is known to inhibit metastatic tumors”, the “inhibition of metastatic tumors” value is given as “known to inhibit metastatic tumors”.
